# Data taken from US9150568B2, “Compositions and methods for modulating FXR” (NOVARTIS AG, priority 2010, dated 2015).
# Target: T1, human Farnesoid X Receptor (FXR) ligand binding domain (GST-FXR LBD) (Homo sapiens, UniProt Q96RI1)
# T1 construct: purchased Invitrogen
# T1 sequence (Q96RI1 193-472 isoform Q96RI1-2): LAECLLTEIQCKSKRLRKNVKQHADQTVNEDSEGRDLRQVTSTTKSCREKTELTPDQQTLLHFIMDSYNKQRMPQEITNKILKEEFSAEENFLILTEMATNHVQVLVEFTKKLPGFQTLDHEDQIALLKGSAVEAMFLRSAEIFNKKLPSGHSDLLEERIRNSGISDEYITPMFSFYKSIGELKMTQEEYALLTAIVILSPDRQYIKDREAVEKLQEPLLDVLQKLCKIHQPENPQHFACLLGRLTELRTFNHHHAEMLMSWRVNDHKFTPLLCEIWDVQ
# Experiment: Human GST-FXR LBD co-activator interaction assay (HTRF)
# Type: biochemical
# Details: GST-FXR LBD / biotin-SRC-1 peptide FRET; response relative to GW4064; read-out: FXR Co-activator interaction assay (EC50)
# In short: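 FRET (HTRF) read-out of ligand-induced binding between GST-FXR LBD and an SRC-1 peptide, detected with anti-GST cryptate and streptavidin-XL665 in buffer with 50 mM KF. Response % was normalized to DMSO and to the maximal GW4064 response. EC50 came from a four-parameter fit.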
row,Compound,EC50 [nM]
1,COC(=O)c1cncc(N2C3CC[C@H]2C[C@H](OCc2c(-c4ccccc4OC(F)(F)F)noc2C2CC2)C3)n1 [Example 19-5A],200
2,COC(=O)c1cccc(N2C3CC[C@H]2C[C@H](OCc2c(-c4ccccc4OC(F)(F)F)noc2C2CC2)C3)n1 [Example 19-7A],10
3,O=C(O)c1cnc(N2C3CC[C@H]2C[C@H](OCc2c(-c4ccccc4OC(F)(F)F)noc2C2CC2)C3)cc1C(F)(F)F [Example 19-3B],10
4,"O=C(O)c1ccc(N2[C@@H]3CC[C@H]2C[C@H](OCc2c(-c4ccccc4OC(F)(F)F)noc2C2CC2)C3)nc1 [Example 18-3B, 6-[(1R,5S)-3-({5-cyclopropyl-3-[2-(trifluoromethoxy)phenyl]-1,2-oxazol-4-yl}methoxy)-8-azabicyclo[3.2.1]octan-8-yl]pyridine-3-carboxylic acid]",4
5,CCOC(=O)c1ccc2nc(N3C4CC[C@H]3C[C@H](OCc3c(-c5c(F)cccc5F)noc3C3CC3)C4)sc2c1 [Example 6-5A],3.8
6,Cc1cccc(C)c1-c1noc(C2CC2)c1COC1CC2CC[C@@H](C1)N2c1ccc(C(=O)O)c(C)n1 (stereo partly shown) [Example 30-49],140
7,"O=C(O)c1ccc(N2[C@@H]3CC[C@H]2C[C@H](OCc2c(-c4ccccc4C(F)(F)F)noc2C2CC2)C3)nc1 [Example 18-6B, 6-[(1R,5S)-3-({5-cyclopropyl-3-[2-(trifluoromethyl)phenyl]-1,2-oxazol-4-yl}methoxy)-8-azabicyclo[3.2.1]octan-8-yl]pyridine-3-carboxylic acid]",5
8,Cc1cc(N2C3CC[C@H]2CC(OCc2c(-c4ccccc4OC(F)F)noc2C2CC2)C3)ncc1C(=O)O (stereo partly shown) [Example 22-4B],9
9,O=C(O)c1ccc2nc(N3C4CC[C@H]3CC(OCc3c(-c5c(Cl)cccc5Cl)noc3C3CC3)C4)sc2c1 (stereo partly shown) [Example 30-70],0.2
10,COC(=O)c1cnc(N2C3CC[C@H]2CC(OCc2c(-c4ccccc4OC(F)F)noc2C2CC2)C3)c(C)c1 (stereo partly shown) [Example 22-7A],10
11,O=C(O)c1cc2nc(N3C4CC[C@H]3CC(OCc3c(-c5ccccc5C(F)(F)F)noc3C3CC3)C4)ccn2n1 (stereo partly shown) [Example 31-4],4
12,O=C(O)c1ccc2nc(N3C4CC[C@H]3CC(OCc3c(-c5ccccc5C(F)(F)F)noc3C3CC3)C4)ccc2c1 (stereo partly shown) [Example 30-54],16
13,COC(=O)c1cnc(N2C3CC[C@H]2CC(OCc2c(-c4ccccc4OC(F)F)noc2C2CC2)C3)cc1C (stereo partly shown) [Example 22-4A],20
14,COC(=O)c1cnc(N2C3CC[C@H]2CC(OCc2c(-c4c(F)cccc4F)noc2C2CC2)C3)cn1 (stereo partly shown) [Example 22-15A],130
15,Cc1ccccc1-c1noc(C2CC2)c1CO[C@H]1C[C@H]2CC[C@@H](C1)N2c1ccc(C(=O)O)cn1 [Example 30-2],10
16,Cn1nc(C(=O)O)c2ccc(N3C4CC[C@H]3CC(OCc3c(-c5ccccc5OC(F)(F)F)noc3C3CC3)C4)cc21 (stereo partly shown) [Example 28-25],1.1
17,O=C(O)c1cc(F)c2nc(N3[C@@H]4CC[C@H]3C[C@@H](OCc3c(C5CC6(CC6)C5)noc3C3CC3)C4)sc2c1 [Example 29-4],11
18,Cc1cc(N2C3CC[C@H]2CC(OCc2c(-c4c(F)cccc4F)noc2C2CC2)C3)ncc1C(=O)O (stereo partly shown) [Example 30-26],7
19,Cc1cc(C(=O)O)nc(N2C3CC[C@H]2CC(OCc2c(-c4ccccc4Cl)noc2C2CC2)C3)n1 (stereo partly shown) [Example 30-22],19
20,O=C(O)c1cccc(N2[C@@H]3CC[C@H]2C[C@@H](OCc2c(-c4ccccc4OC(F)F)noc2C2CC2)C3)n1 [Example 30-27],7
21,COC(=O)c1cc(F)c(N2C3CC[C@H]2CC(OCc2c(-c4ccccc4C(F)(F)F)noc2C2CC2)C3)c(F)c1 (stereo partly shown) [Example 25-2A],420
22,Cc1cc(C(=O)O)nc(N2C3CC[C@H]2CC(OCc2c(-c4c(F)cccc4Cl)noc2C2CC2)C3)n1 (stereo partly shown) [Example 30-19],23
23,COC(=O)c1cc(Cl)nc(N2C3CC[C@H]2CC(OCc2c(-c4c(F)cccc4F)noc2C2CC2)C3)n1 (stereo partly shown) [Example 22-20],25
24,COc1cc(C(=O)O)cc2sc(N3C4CC[C@H]3CC(OCc3c(-c5c(C)cccc5F)noc3C3CC3)C4)nc12 (stereo partly shown) [Example 30-11],0.3
25,Cc1cc(C(=O)O)nc(N2[C@@H]3CC[C@H]2C[C@@H](OCc2c(-c4c(C)cccc4F)noc2C2CC2)C3)n1 [Example 30-13],6
26,CCOC(=O)c1ccc2nc(N3C4CC[C@H]3C[C@H](OCc3c(-c5ccccc5C(F)(F)F)noc3C3CC3)C4)sc2c1 [Example 6-1A],63

row,Compound,EC50 [nM]
1,COC(=O)c1cc(F)c(N2C3CC[C@H]2CC(OCc2c(-c4ccccc4OC(F)F)noc2C2CC2)C3)c(F)c1 (stereo partly shown) [Example 25-1A],28
2,O=C(O)c1cnc(N2C3CC[C@H]2CC(OCc2c(-c4ccccc4C(F)(F)F)noc2C2CC2)C3)s1 (stereo partly shown) [Example 30-76],16
3,O=C(O)c1ccc2nc(N3C4CC[C@H]3C[C@H](OCc3c(-c5ccccc5OC(F)F)noc3C3CC3)C4)sc2c1 [Example 6-2B],0.36
4,COC(=O)c1ccc(N2C3CC[C@H]2CC(OCc2c(-c4ccccc4OC(F)F)noc2C2CC2)C3)nn1 (stereo partly shown) [Example 22-9A],1030
5,COc1cc(C(=O)O)cc2sc(N3[C@@H]4CC[C@H]3C[C@@H](OCc3c(-c5ccccc5Cl)noc3C3CC3)C4)nc12 [Example 30-20],0.74
6,Cc1c(N2C3CC[C@H]2CC(OCc2c(-c4ccccc4Cl)noc2C2CC2)C3)ccc2oc(C(=O)O)cc12 (stereo partly shown) [Example 28-9],0.3
7,"O=C(O)c1cc(F)c2nc(N3C4CC[C@H]3CC(OCc3c(-c5ccccc5C(F)(F)F)noc3C3CC3)C4)sc2c1 (stereo in doubt) [Example 1-2B, 2-[3-({5-cyclopropyl-3-[2-(trifluoromethyl)phenyl]-1,2-oxazol-4-yl}methoxy)-8-azabicyclo[3.2.1]octan-8-yl]-4-fluoro-1,3-benzothiazole-6-carboxylic acid]",0.25
8,"COC(=O)c1ccc(N2C3CC[C@H]2CC(OCc2c(-c4ccccc4OC(F)(F)F)noc2C2CC2)C3)c(F)c1 (stereo in doubt) [Example 23A, Methyl 4-(3-((5-cyclopropyl-3-(2-(trifluoromethoxy)phenyl)isoxazol-4-yl)methoxy)-8-azabicyclo[3.2.1]octan-8-yl)-3-fluorobenzoate]",6
9,O=C(O)c1cnc(N2C3CC[C@H]2C[C@H](OCc2c(-c4ccccc4OC(F)(F)F)noc2C2CC2)C3)nc1C(F)(F)F [Example 19-2B],20
10,COc1cc(C(=O)O)cc2sc(N3C4CC[C@H]3CC(OCc3c(-c5c(F)cccc5Cl)noc3C3CC3)C4)nc12 (stereo partly shown) [Example 30-17],0.7
11,O=C(O)c1cc(F)c2nc(N3C4CC[C@H]3CC(OCc3c(C5CCCCC56CC6)noc3C3CC3)C4)sc2c1 (stereo partly shown) [Example 29-6],2
12,O=C(O)c1ccc2nc(N3C4CC[C@H]3C[C@H](OCc3c(C5CCC6(CC5)CC6)noc3C3CC3)C4)sc2c1 [Example 13-1B],1.3
13,Cc1c(N2C3CC[C@H]2CC(OCc2c(-c4ccccc4C(F)(F)F)noc2C2CC2)C3)ccc2oc(C(=O)O)cc12 (stereo partly shown) [Example 28-12],2.8
14,O=C(O)c1cnc2c(N3C4CC[C@H]3CC(OCc3c(-c5ccccc5OC(F)(F)F)noc3C3CC3)C4)cccc2c1 (stereo partly shown) [Example 28-17],9.8
15,O=C(O)c1ccc2nc(N3C4CC[C@H]3CC(OCc3c(-c5ccc(F)cc5F)noc3C3CC3)C4)sc2c1 (stereo partly shown) [Example 30-61],2
16,O=C(O)c1nsc2cc(N3C4CC[C@H]3CC(OCc3c(-c5ccccc5C(F)(F)F)noc3C3CC3)C4)ccc12 (stereo partly shown) [Example 28-21],2.2
17,"COC(=O)c1cnc(N2C3CC[C@H]2C[C@H](OCc2c(-c4ccccc4OC(F)(F)F)noc2C2CC2)C3)c(Br)c1 [Example 18-1, Methyl 5-bromo-6-((1S,3R)-3-((5-cyclopropyl-3-(2-(trifluoromethoxy)phenyl)isoxazol-4-yl)methoxy)-8-azabicyclo[3.2.1]octan-8-yl)nicotinate]",9
18,COC(=O)c1cc(C)nc(N2C3CC[C@H]2CC(OCc2c(-c4ccccc4C(F)(F)F)noc2C2CC2)C3)c1 (stereo partly shown) [Example 21-1A],300
19,Cn1ccc2c(N3C4CC[C@H]3CC(OCc3c(-c5ccccc5OC(F)(F)F)noc3C3CC3)C4)ncc(C(=O)O)c21 (stereo partly shown) [Example 30-58],210
20,COc1cc(C(=O)O)cc2sc(N3C4CC[C@H]3C[C@H](OCc3c(C5CCCCC5)noc3C3CC3)C4)nc12 [Example 9-2],11
21,O=C(O)c1cnc(N2C3CC[C@H]2CC(OCc2c(-c4c(F)cccc4F)noc2C2CC2)C3)nc1 (stereo partly shown) [Example 22-14B],13
22,O=C(O)c1cc(F)c2nc(N3C4CC[C@H]3C[C@H](OCc3c(-c5ccccc5OC(F)F)noc3C3CC3)C4)sc2c1 [Example 6-3B],0.27
23,O=C(O)c1cnc(N2C3CC[C@H]2CC(OCc2c(-c4c(F)cccc4F)noc2C2CC2)C3)cc1C(F)(F)F (stereo partly shown) [Example 22-16B],10
24,"COC(=O)c1cc(F)c2nc(N3C4CC[C@H]3CC(OCc3c(-c5ccccc5OC(F)(F)F)noc3C3CC3)C4)sc2c1 (stereo partly shown) [Example 1-1A, Methyl 2-(3-((5-cyclopropyl-3-(2-(trifluoromethoxy)phenyl)isoxazol-4-yl)methoxy)-8-azabicyclo[3.2.1]octan-8-yl)-4-fluorobenzo[d]thiazole-6-carboxylate]",14
25,COc1cc(C(=O)O)cc2sc(N3C4CC[C@H]3C[C@H](OCc3c(C5CCC6(CC5)CC6)noc3C3CC3)C4)nc12 [Example 13-3B],0.67
26,O=C(O)c1cc(F)c(N2C3CC[C@H]2CC(OCc2c(-c4ccccc4OC(F)F)noc2C2CC2)C3)c(F)c1 (stereo partly shown) [Example 25-1B],3
